Columns and labels:
Format in all cases: physicochemical
[1] = Moisture sorption of Form II by DVS moisture balance; conditions: 25° C.
Text: However, the solids re-hydrate equally easily when exposed to R.H. greater than 10%. […] The behavior of form II during this experiment was typical of a highly crystalline channel hydrate/solvate.

[2] = Solubility experiments in acetonitrile/water with and without excess maleic acid; conditions: 90/10 acetonitrile/water with excess maleic acid; nineteen days at 5° C.; slurry in single liquid phase, solids form II
Description: These vials were then placed in a shaker bath at 5° C. After four days of equilibration when the vials were observed, it was discovered that the system had turned from a suspension of solids in a single liquid phase to a biphasic liquid with no suspended solids. Both layers from each of the three vials were analyzed for water content (through Karl-Fischer analysis) and concentration of the compound. […] It is worth pointing out though that the exact conditions leading to measured concentrations in the top layer could only be truly established when the partitioning of excess maleic acid is established between the two layers. The bottom layer (rich in water) would most likely be under-saturated since no excess solids remained. This possibility is substantiated by the solubility data on the bottom layer, where the concentrations are found to be very similar across all the experiments. While the vial at 70/30 acetonitrile/water with excess maleic acid remained biphasic even after nineteen days, the 70/30 acetonitrile/water vial without any excess maleic acid after five days had some very large crystals floating in a solution that still seemed biphasic. […] These crystals were used to obtain crystallography data. After nineteen days of equilibration at 5° C., the 90/10 acetonitrile/water vial with excess maleic acid had turned back into a slurry of solids in a single liquid phase.

[3] = Solubility of Form II in acetonitrile/ethanol 3A mixtures; conditions: equilibrated nineteen days; for Solubility, 70/30 ACN/EtOH 3A wt. % S-[2-[(1-Iminoethyl)amino]ethyl]-2-methyl-L-cysteine: 70/30 v/v acetonitrile/ethanol 3A; for Solubility, 90/10 ACN/EtOH 3A wt. % S-[2-[(1-Iminoethyl)amino]ethyl]-2-methyl-L-cysteine: 90/10 v/v acetonitrile/ethanol 3A
Text: Excess solids were equilibrated in these solvents at the appropriate temperature (in a shaker bath) for nineteen days. Supernatant samples were withdrawn and analyzed by HPLC for concentration of S-[2-[(1-Iminoethyl)amino]ethyl]-2-methyl-L-cysteine.

Moisture gain ([1]; between 10 and 70% R.H.): ~2.5%
Moisture gain ([1]; between 70 and 90% R.H.): ~4.5%
Concentration in the solution phase, S-[2-[(1-Iminoethyl)amino]ethyl]-2-methyl-L-cysteine [2]: 0.613 wt %
Solubility, 70/30 ACN/EtOH 3A wt. % S-[2-[(1-Iminoethyl)amino]ethyl]-2-methyl-L-cysteine ([3]; 5 ° C.): 0.679 wt. %
Solubility, 70/30 ACN/EtOH 3A wt. % S-[2-[(1-Iminoethyl)amino]ethyl]-2-methyl-L-cysteine ([3]; 25 ° C.): 0.737 wt. %
Solubility, 90/10 ACN/EtOH 3A wt. % S-[2-[(1-Iminoethyl)amino]ethyl]-2-methyl-L-cysteine ([3]; 5 ° C.): 0.169 wt. %
Solubility, 90/10 ACN/EtOH 3A wt. % S-[2-[(1-Iminoethyl)amino]ethyl]-2-methyl-L-cysteine ([3]; 25 ° C.): 0.135 wt. %
Substance: S-[2-[(1-Iminoethyl)amino]ethyl]-2-methyl-L-cysteine maleate crystalline salt Form II
Cycling between sorption and de-sorption cycles ([1]; DVS moisture balance): did not show any hysteresis or loss of crystallinity

Source: patent publication US20040209956A1 (priority 2003, published 2004)
